In ChEMBL document CHEMBL4041531, “Design, synthesis, and biological evaluation of novel 1-oxo-1,2,3,4-tetrahydropyrazino[1,2-a]indole-3-carboxamide analogs in MCF-7 and MDA-MB-468 breast cancer cell lines” (2017):
Active and inactive are the calls of the source. The calls are words filed in the database; no cut-off is given here.

Columns and labels:
MDA-MB-468 [1] = settings: Homo sapiens, at 10 µM
Description: Inhibition of EGFR in gefitinib-resistant human MDA-MB-468 cells assessed as reduction in Akt phosphorylation at 10 uM after 18 hrs by Western blot method

MCF7 [2] = test: Cytotoxicity against human MCF7 cells assessed as reduction in cell viability after 48 hrs by MTT assay; type: functional; settings: MCF7, 48 h
MDA-MB-468 [3] = test: Cytotoxicity against gefitinib-resistant human MDA-MB-468 cells assessed as cell viability at 10 uM after 48 hrs by MTT assay relative to control; type: functional; settings: MDA-MB-468, 48 h, read-out: Activity
MCF7 [4] = test: Potency index, ratio of gefitinib GI50 to compound GI50 for human MCF7 cells; type: functional
MCF7 [5] = test: Cytotoxicity against human MCF7 cells assessed as cell viability at 10 uM after 48 hrs by MTT assay relative to control; type: functional; settings: MCF7, 48 h, read-out: Activity
MDA-MB-468 [6] = settings: Homo sapiens, at 10 µM; remark: listed apart in the source
Description: Inhibition of EGFR in gefitinib-resistant human MDA-MB-468 cells assessed as reduction in Akt phosphorylation at 10 uM after 6 hrs by Western blot method

MDA-MB-468 [7] = test: Cytotoxicity against gefitinib-resistant human MDA-MB-468 cells assessed as reduction in cell viability after 48 hrs by MTT assay; type: functional; settings: MDA-MB-468, 48 h
MDA-MB-468 [8] = test: Cytotoxicity against gefitinib-resistant human MDA-MB-468 cells assessed as cell viability at 30 uM after 48 hrs by MTT assay relative to control; type: functional; settings: MDA-MB-468, 48 h, read-out: Activity
MCF7 [9] = test: Cytotoxicity against human MCF7 cells assessed as cell viability at 30 uM after 48 hrs by MTT assay relative to control; type: functional; settings: MCF7, 48 h, read-out: Activity
MCF7 [10] = test: Cytotoxicity against human MCF7 cells assessed as cell viability at 1 uM after 48 hrs by MTT assay relative to control; type: functional; settings: MCF7, 48 h, read-out: Activity
MCF7 [11] = test: Cytotoxicity against human MCF7 cells assessed as cell viability at 3 uM after 48 hrs by MTT assay relative to control; type: functional; settings: MCF7, 48 h, read-out: Activity
MCF7 [12] = test: Cytotoxicity against human MCF7 cells assessed as reduction in cell viability at 1 uM after 48 hrs in presence of 1 to 10 uM gefitinib by MTT assay; type: functional, cell-based
MDA-MB-468 [13] = test: Cytotoxicity against gefitinib-resistant human MDA-MB-468 cells assessed as cell viability at 1 uM after 48 hrs in presence of 1 uM gefitinib by MTT assay relative to control; type: functional; settings: MDA-MB-468, 48 h, read-out: Activity
MDA-MB-468 [14] = test: Cytotoxicity against gefitinib-resistant human MDA-MB-468 cells assessed as cell viability at 1 uM after 48 hrs in presence of 3 uM gefitinib by MTT assay relative to control; type: functional
MDA-MB-468 [15] = test: Cytotoxicity against gefitinib-resistant human MDA-MB-468 cells assessed as cell viability at 10 uM after 48 hrs in presence of 10 uM gefitinib by MTT assay relative to control; type: functional; settings: MDA-MB-468, 48 h, read-out: Activity
MDA-MB-468 [16] = test: Cytotoxicity against gefitinib-resistant human MDA-MB-468 cells assessed as cell viability at 10 uM after 48 hrs in presence of 1 uM gefitinib by MTT assay relative to control; type: functional
MDA-MB-468 [17] = test: Cytotoxicity against gefitinib-resistant human MDA-MB-468 cells assessed as cell viability at 10 uM after 48 hrs in presence of 3 uM gefitinib by MTT assay relative to control; type: functional
[18] = Selectivity ratio of GI50 for human MCF7 cells to GI50 for gefitinib-resistant human MDA-MB-468 cells; type: functional
MDA-MB-468 [19] = test: Cytotoxicity against gefitinib-resistant human MDA-MB-468 cells assessed as cell viability at 3 uM after 48 hrs in presence of 1 uM gefitinib by MTT assay relative to control; type: functional
MDA-MB-468 [20] = test: Cytotoxicity against gefitinib-resistant human MDA-MB-468 cells assessed as cell viability at 3 uM after 48 hrs in presence of 10 uM gefitinib by MTT assay relative to control; type: functional
MDA-MB-468 [21] = test: Cytotoxicity against gefitinib-resistant human MDA-MB-468 cells assessed as cell viability at 3 uM after 48 hrs in presence of 3 uM gefitinib by MTT assay relative to control; type: functional; settings: MDA-MB-468, 48 h, read-out: Activity
MDA-MB-468 [22] = test: Cytotoxicity against gefitinib-resistant human MDA-MB-468 cells assessed as cell viability at 1 uM after 48 hrs in presence of 10 uM gefitinib by MTT assay relative to control; type: functional

Row | SMILES | GI50 (MDA-MB-468 [7]) [µM] | viability at 30 µM (MDA-MB-468 [8]) [%] | viability at 30 µM (MCF7 [9]) [%] | also measured
1 | O=C(NCc1cccs1)[C@@H]1Cn2c(cc3ccccc32)C(=O)N1Cc1ccccc1 | 3.8 | – | – | inhibition (MDA-MB-468 [1]): Active; GI50 (MCF7 [2]): 4.6 µM; viability at 10 µM (MDA-MB-468 [3]): 18.5%; RatioGI50 (MCF7 [4]): 4.5; viability at 10 µM (MCF7 [5]): 35.8%; inhibition (MDA-MB-468 [6]): Active
2 | O=C1N[C@H](C(=O)NCc2cccc(Cl)c2)Cn2c1cc1ccccc12 | 23.4 | 34.8 | 61.7 | –
3 | O=C1N[C@H](C(=O)NCc2ccc(C(F)(F)F)cc2)Cn2c1cc1ccccc12 | – | 70.5 | 60.2 | –
4 | COc1cc2ncnc(Nc3ccc(F)c(Cl)c3)c2cc1OCCCN1CCOCC1 [GEFITINIB] | 9.7 | 6.7 | 16.2 | viability at 1 µM (MCF7 [10]): 73.1%; GI50 (MCF7 [2]): 20.8 µM; viability at 10 µM (MDA-MB-468 [3]): 49.1%; viability at 10 µM (MCF7 [5]): 89.7%; viability at 3 µM (MCF7 [11]): 72.6%
5 | O=C1N[C@@H](C(=O)NCc2ccco2)Cn2c1cc1ccccc12 | 15.9 | 21.2 | 82.5 | –
6 | O=C1N[C@H](C(=O)NCc2ccccc2)Cn2c1cc1ccccc12 | 28.9 | 48.8 | 71.4 | –
7 | O=C1N[C@H](C(=O)NCc2ccc(Cl)cc2)Cn2c1cc1ccccc12 | – | 60.3 | 66.1 | –
8 | O=C1N[C@H](C(=O)Nc2ccccc2)Cn2c1cc1ccccc12 | – | 74.5 | 87.3 | –
9 | O=C1N[C@H](C(=O)NCc2ccc(F)cc2)Cn2c1cc1ccccc12 | – | 63.1 | 59.7 | –
10 | O=C1N[C@H](C(=O)NCc2cccs2)Cn2c1cc1ccccc12 | – | 39.2 | 61.7 | –
11 | Nc1cccc(CNC(=O)[C@@H]2Cn3c(cc4ccccc43)C(=O)N2)c1 | – | 67.7 | 70.5 | –
12 | O=C1N[C@@H](C(=O)NCc2ccccc2)Cn2c1cc1ccccc12 | 24 | 45 | 61.8 | –
13 | C=CCN1C(=O)c2cc3ccccc3n2C[C@H]1C(=O)NCc1ccco1 | 18.5 | – | – | viability at 10 µM (MDA-MB-468 [3]): 58.4%; viability at 10 µM (MCF7 [5]): 98.2%
14 | Cc1ccc(CNC(=O)[C@@H]2Cn3c(cc4ccccc43)C(=O)N2)cc1 | – | 61.5 | 68 | –
15 | O=C1N[C@H](C(=O)NCCc2ccc(O)cc2)Cn2c1cc1ccccc12 | – | 63.1 | 85.5 | –
16 | COC(=O)[C@@H]1Cn2c(cc3ccccc32)C(=O)N1Cc1ccccc1 | – | – | – | viability at 10 µM (MDA-MB-468 [3]): 98.8%; viability at 10 µM (MCF7 [5]): 92.6%
17 | CN1C(=O)c2cc3ccccc3n2C[C@H]1C(=O)NCc1ccco1 | 15 | – | – | viability at 10 µM (MDA-MB-468 [3]): 56.1%; viability at 10 µM (MCF7 [5]): 54.1%
18 | O=C(NCc1ccccc1)[C@@H]1Cn2c(cc3ccccc32)C(=O)N1Cc1ccccc1 | 7.6 | – | – | GI50 (MCF7 [2]): 9.6 µM; viability at 10 µM (MDA-MB-468 [3]): 28%; viability at 10 µM (MCF7 [5]): 47.1%
19 | O=C(NCc1ccco1)[C@@H]1Cn2c(cc3ccccc32)C(=O)N1Cc1ccccc1 | 5.2 | – | – | Activity (MCF7 [12]): Active; viability at 1 µM (MCF7 [10]): 93.6%; viability at 1 µM (MDA-MB-468 [13]): 66.3%; Activity (MDA-MB-468 [14]): 61%; viability at 10 µM (MDA-MB-468 [15]): 15.6%; inhibition (MDA-MB-468 [1]): Active; Activity (MDA-MB-468 [16]): 24.3%; Activity (MDA-MB-468 [17]): 19.6%; GI50 (MCF7 [2]): 19.3 µM; RatioGI50 [18]: 3.7; viability at 10 µM (MDA-MB-468 [3]): 23.3%; Activity (MDA-MB-468 [19]): 40.5%; viability at 10 µM (MCF7 [5]): 58.5%; Activity (MDA-MB-468 [20]): 23.8%; inhibition (MDA-MB-468 [6]): Active; viability at 3 µM (MDA-MB-468 [21]): 34.3%; viability at 3 µM (MCF7 [11]): 62.5%; Activity (MDA-MB-468 [22]): 40.8%

Row | SMILES | GI50 (MDA-MB-468 [7]) [µM] | viability at 30 µM (MDA-MB-468 [8]) [%] | viability at 30 µM (MCF7 [9]) [%] | also measured
20 | O=C1N[C@H](C(=O)O)Cn2c1cc1ccccc12 | – | 76.2 | 99.7 | –
21 | Cc1cccc(CNC(=O)[C@@H]2Cn3c(cc4ccccc43)C(=O)N2)c1 | – | 66.3 | 78.1 | –
22 | CCCNC(=O)[C@@H]1Cn2c(cc3ccccc32)C(=O)N1 | – | 88 | 83.9 | –
23 | COC(=O)[C@H]1Cn2c(cc3ccccc32)C(=O)N1 | – | 82.4 | 79.7 | –
24 | Cc1ccc(CNC(=O)[C@@H]2Cn3c(cc4ccccc43)C(=O)N2Cc2ccccc2)o1 | – | – | – | viability at 10 µM (MDA-MB-468 [3]): 63.1%; viability at 10 µM (MCF7 [5]): 68.7%
25 | Nc1ccc(CNC(=O)[C@@H]2Cn3c(cc4ccccc43)C(=O)N2)cc1 | – | 65.4 | 76 | –
26 | Cc1ccc(CNC(=O)[C@@H]2Cn3c(cc4ccccc43)C(=O)N2)o1 | – | 43 | 60.2 | –
27 | COc1cccc(CNC(=O)[C@@H]2Cn3c(cc4ccccc43)C(=O)N2)c1 | – | 70.5 | 68.6 | –
28 | O=C(NCc1cccc(Cl)c1)[C@@H]1Cn2c(cc3ccccc32)C(=O)N1Cc1ccccc1 | 9.5 | – | – | GI50 (MCF7 [2]): 8.3 µM; viability at 10 µM (MDA-MB-468 [3]): 46.7%; viability at 10 µM (MCF7 [5]): 38.2%
29 | C=CCNC(=O)[C@@H]1Cn2c(cc3ccccc32)C(=O)N1 | – | 94.7 | 104 | –
30 | O=C1N[C@H](C(=O)NC2CCCCC2)Cn2c1cc1ccccc12 | – | 73.1 | 80.7 | –
31 | O=C1N[C@H](C(=O)NCc2ccco2)Cn2c1cc1ccccc12 | 23.1 | 39.7 | 62.1 | –
32 | O=C1N[C@H](C(=O)NCc2cccc(C(F)(F)F)c2)Cn2c1cc1ccccc12 | – | 62.4 | 59.1 | –
33 | CC(C)NC(=O)[C@@H]1Cn2c(cc3ccccc32)C(=O)N1 | – | 88.1 | 84.4 | –
34 | COC(=O)[C@@H]1Cn2c(cc3ccccc32)C(=O)N1 | – | 102 | 85.1 | –
35 | CCCCCCNC(=O)[C@@H]1Cn2c(cc3ccccc32)C(=O)N1 | – | 61.8 | 71.2 | –
36 | COc1ccc(CNC(=O)[C@@H]2Cn3c(cc4ccccc43)C(=O)N2)cc1 | – | 74.7 | 68.8 | –
37 | CNC(=O)[C@@H]1Cn2c(cc3ccccc32)C(=O)N1 | – | 82.6 | 77.5 | –
